The values that follow come from patent US9975880B2, “Imidazolidine-2,4-dione dervatives” (IPSEN PHARMA S.A.S., priority 2013, dated 2018).

Data set [1] deals with DU145 cells. The experiment in a line: Anti-proliferative activity on DU145 in complete medium. The settings on record: DU145 (no androgen receptor), 144 h, up to 10,000 nM, Cell-Titer-Glow. It counts as cell-based. The procedure:
It is used to evaluate the selectivity of the compounds for androgen receptor expressing cells. No activity of the compounds is expected. • The cells of the DU145 line (ATCC HTB-81) are seeded at 800 cells/well in 90 μl of complete medium in 96-well plates coated with poly-D-lysine (Biocoat, Costar). • Treatment of the cells: 24 h after the seeding, the cells are treated with 10 μl/well of compound diluted in the culture medium. The concentrations used are the following: 1 nM/10/30/100/300/1000/3000/10,000 nM. The cells are incubated for 144 h at 37° C., 5% CO2. • Reading: After incubation for 6 days, cell proliferation was determined by Cell-Titer-Glow (CTG) Luminescent Cell Viability Assay • Results: The experiments are carried out in duplicate and the best compounds are tested twice. A concentration value inhibiting the cell proliferation by 50% (IC50) is calculated.

Data set [2] in a line: Evaluation of solubility. Conditions: aqueous buffer, kinetic from dmso stock; 100 mM potassium phosphate buffer pH 7.4, 0.1% DMSO, target 100 μM, 1 hour room temperature, LC-MS/MS. It counts as physicochemical. The procedure:
Test compounds were prepared as stock solutions at 100 mM in DMSO. The stock solutions were diluted, in duplicate, into 100 mM potassium phosphate buffer (pH 7.4) to a target concentration of 100 μM with a final DMSO concentration of 0.1%. The solutions were shaken at 1000 rpm for 1 hour at room temperature followed by centrifugation for 10 minutes at 1200 rpm to precipitate un-dissolved particles. The supernatants were transferred to new tubes and the samples were further prepared as follows: • Undiluted: 5 μL of supernatant to 95 μL of ACN containing internal standard (IS) • 1:10 diluted: 10 μL of the supernatant into 90 μL K-buffer, mix, then transfer 5 μL of 1:10 diluted samples to 95 μL ACN containing IS • 1:100 diluted: 10 μL of the supernatant into 990 μL K-buffer, mix, then transfer 5 μL of 1:100 diluted samples to 95 μL of ACN containing IS
Samples (undiluted, 1:10 diluted, and 1:100 diluted) along with the standards were analyzed by LC-MS/MS.

The test system of data set [3] is LNCaP cells. Description: Anti-proliferative activity on LNCaP in complete medium. It counts as cell-based. The settings on record: Homo sapiens, 144 h. As for the experimental part: The anti-proliferative activity of the compounds of the present invention is determined on LNCaP in complete medium by applying the following experimental procedure:
The LNCaP cell type (ATCC, 1740) originates from a prostate carcinoma. This line expresses the androgen receptor and is hormone-dependent.
Maintenance of the LNCaP line is carried out in complete culture medium: RPMI, 10% of fetal calf serum, 2 mM glutamine, 100 U/ml penicillin, 0.1 mg/ml of streptomycin and 0.01M HEPES, 1 mM sodium pyruvate, […]. • Seeding the plates:
The LNCaP line is seeded at 20,000 cells/well in 90 μl of complete medium in 96-well plates coated with poly-D-lysine (Biocoat, Costar). • Treatment of the cells: 24 h after the seeding, the cells are treated with 10 μl/well of compound diluted in the culture medium. The concentrations used are the following: 1 nM/10/30/100/300/1000/3000/10,000 nM. The cells are incubated for 144 h at 37° C., 5% CO2. • Reading: After incubation for 6 days, cell proliferation was determined by Cell-Titer-Glow (CTG) Luminescent Cell Viability Assay. • Results: The experiments are carried out in duplicate and the best compounds are tested twice. […] Anti-Proliferative Activity on DU145 in Complete Medium

Setting [4] is: complete medium, 144 h incubation, Cell-Titer-Glow, read-out: IC50 on the LNCaP cells in culture (inhibition of cell proliferation by 50%).
Setting [5] is: read-out: IC50 on the LNCaP cells in culture (inhibition of cell proliferation by 50%), LNCaP, complete medium, 144 h incubation, Cell-Titer-Glow.

Converted amounts (≈) assume the structure as drawn. Read-outs that look alike come from different tables or passages of the source.

On to `CC1(C)C(=O)N(c2ccc(C#N)c(C(F)(F)F)c2)C(=O)N1C/C=C\Cn1cc(-c2ccc(C#N)c(C(F)(F)F)c2)cn1` [Example 1, (Z)-4-(3-(4-(4-(4-cyano-3-(trifluoromethyl)phenyl)-1H-pyrazol-1-yl)but-2-en-1-yl)-4,4-dimethyl-2,5-dioxoimidazolidin-1-yl)-2-(trifluoromethyl)benzonitrile], for which, in data set [1], the “IC50 on DU145 cells (anti-proliferative effect)” value (from here on “IC50 on DU145 cells”) is listed as “no measurable IC50”.
Same read-out and setting: with `CC1(C)C(=O)N(c2ccc(S(C)(=O)=O)c(C(F)(F)F)c2)C(=O)N1C/C=C\Cn1cc(-c2ccc(C#N)c(C(F)(F)F)c2)cn1` [Example 2, (Z)-4-(1-(4-(5,5-dimethyl-3-(4-(methylsulfonyl)-3-(trifluoromethyl)phenyl)-2,4-dioxoimidazolidin-1-yl)but-2-en-1-yl)-1H-pyrazol-4-yl)-2-(trifluoromethyl)benzonitrile] the entry was “no measurable IC50”.
As for `CC1(C)C(=O)N(c2cnc(C#N)c(C(F)(F)F)c2)C(=O)N1C/C=C\Cn1cc(-c2ccc(S(C)(=O)=O)c(C(F)(F)F)c2)cn1` [Example 4, (Z)-5-(4,4-dimethyl-3-(4-(4-(4-(methylsulfonyl)-3-(trifluoromethyl)phenyl)-1H-pyrazol-1-yl)but-2-en-1-yl)-2,5-dioxoimidazolidin-1-yl)-3-(trifluoromethyl)picolinonitrile], in data set [1], the “IC50 on DU145 cells” value is reported as “no measurable IC50”. In data set [2], the solubility at 1 h worked out at 1.7 µM (≈ 1.09 µg/mL).
As to `CC1(C)C(=O)N(c2cnc(C#N)c(C(F)(F)F)c2)C(=O)N1C/C=C\Cn1cc(-c2ccc(S(C)(=O)=O)c(Cl)c2)cn1` [Example 5, (Z)-5-(3-(4-(4-(3-chloro-4-(methylsulfonyl)phenyl)-1H-pyrazol-1-yl)but-2-en-1-yl)-4,4-dimethyl-2,5-dioxoimidazolidin-1-yl)-3-(trifluoromethyl)picolinonitrile], the “IC50 on DU145 cells” value in data set [1] was “no measurable IC50”. This compound also yielded a solubility at 1 h in data set [2] of 0.65 µM (≈ 0.395 µg/mL).
On to `Cc1nn(C/C=C\CN2C(=O)N(c3ccc(C#N)c(C(F)(F)F)c3)C(=O)C2(C)C)c(C)c1-c1ccc(S(C)(=O)=O)c(C(F)(F)F)c1` [Example 6, (Z)-4-(3-(4-(3,5-dimethyl-4-(4-(methylsulfonyl)-3-(trifluoromethyl)phenyl)-1H-pyrazol-1-yl)but-2-en-1-yl)-4,4-dimethyl-2,5-dioxoimidazolidin-1-yl)-2-(trifluoromethyl)benzonitrile], for which, in data set [1], the “IC50 on DU145 cells” value is recorded as “no measurable IC50”. Further, the solubility at 1 h in data set [2] turned out to be 4.38 µM (≈ 2.92 µg/mL).
As to `CC1(C)CN(c2ccc(S(C)(=O)=O)c(C(F)(F)F)c2)C(=O)N1C/C=C\CN1C(=O)N(c2ccc(C#N)c(C(F)(F)F)c2)C(=O)C1(C)C` [Example 7, (Z)-4-(3-(4-(5,5-dimethyl-3-(4-(methylsulfonyl)-3-(trifluoromethyl)phenyl)-2-oxoimidazolidin-1-yl)but-2-en-1-yl)-4,4-dimethyl-2,5-dioxoimidazolidin-1-yl)-2-(trifluoromethyl)benzonitrile], in data set [1], the “IC50 on DU145 cells” value is recorded as “no measurable IC50”. Besides, the IC50 in data set [3] (setting [4]) was < 1.5 µM.
`CC1(C)CN(c2ccc(S(C)(=O)=O)c(C(F)(F)F)c2)C(=O)N1C/C=C\CN1C(=O)N(c2ccc(S(C)(=O)=O)c(Cl)c2)C(=O)C1(C)C` [Example 8, (Z)-3-(3-chloro-4-(methylsulfonyl)phenyl)-1-(4-(5,5-dimethyl-3-(4-(methylsulfonyl)-3-(trifluoromethyl)phenyl)-2-oxoimidazolidin-1-yl)but-2-en-1-yl)-5,5-dimethylimidazolidine-2,4-dione]: the “IC50 on DU145 cells” value in data set [1] is on record as “no measurable IC50”.
Consider `CC1(C)CN(c2ccc(C#N)c(C(F)(F)F)c2)C(=O)N1C/C=C\CN1C(=O)N(c2ccc(S(C)(=O)=O)c(C(F)(F)F)c2)C(=O)C1(C)C` [Example 9, (Z)-4-(3-(4-(5,5-dimethyl-3-(4-(methylsulfonyl)-3-(trifluoromethyl)phenyl)-2,4-dioxoimidazolidin-1-yl)but-2-en-1-yl)-4,4-dimethyl-2-oxoimidazolidin-1-yl)-2-(trifluoromethyl)benzonitrile], for which the “IC50 on DU145 cells” value in data set [1] is listed as “no measurable IC50”. Moreover, the IC50 in data set [3] (setting [5]) was < 1.5 µM.
Take `CC1(C)C(=O)N(c2ccc(C#N)c(C(F)(F)F)c2)C(=O)N1C/C=C\CN1CCN(c2ccc(S(C)(=O)=O)c(Cl)c2)C1=O` [Example 11, (Z)-4-(3-(4-(3-(3-chloro-4-(methylsulfonyl)phenyl)-2-oxoimidazolidin-1-yl)but-2-en-1-yl)-4,4-dimethyl-2,5-dioxoimidazolidin-1-yl)-2-(trifluoromethyl)benzonitrile]: the “IC50 on DU145 cells” value in data set [1] is given as “no measurable IC50”. In data set [2], the solubility at 1 h is 0.34 µM (≈ 0.212 µg/mL). Besides, the IC50 in data set [3] (setting [5]) is < 1.5 µM.
`CC1(C)C(=O)N(c2ccc(S(C)(=O)=O)c(C(F)(F)F)c2)C(=O)N1C/C=C\CN1CC(c2ccc(S(C)(=O)=O)c(C(F)(F)F)c2)CC1=O` (stereo not drawn) [Example 15, (Z)-5,5-dimethyl-3-(4-(methylsulfonyl)-3-(trifluoromethyl)phenyl)-1-(4-(4-(4-(methylsulfonyl)-3-(trifluoromethyl)phenyl)-2-oxopyrrolidin-1-yl)but-2-en-1-yl)imidazolidine-2,4-dione]: the “IC50 on DU145 cells” value in data set [1] is listed as “no measurable IC50”. In addition, the solubility at 1 h in data set [2] came to 1.9 µM (≈ 1.34 µg/mL). Also, in data set [3] (setting [4]), the IC50 is < 1.5 µM.
Take `CC1(C)C(=O)N(c2ccc(S(C)(=O)=O)c(Cl)c2)C(=O)N1C/C=C\CN1CCC(O)(c2ccc(C#N)c(C(F)(F)F)c2)C1` (stereo not drawn) [Example 16, (Z)-4-(1-(4-(3-(3-chloro-4-(methylsulfonyl)phenyl)-5,5-dimethyl-2,4-dioxoimidazolidin-1-yl)but-2-en-1-yl)-3-hydroxypyrrolidin-3-yl)-2-(trifluoromethyl)benzonitrile]: the “IC50 on DU145 cells” value in data set [1] is on record as “no measurable IC50”. In data set [3] (setting [4]), the IC50 was < 1.5 µM.
As to `CC1(C)C(=O)N(c2ccc(C#N)c(C(F)(F)F)c2)C(=O)N1C/C=C\CN1CCN(c2ccc(S(C)(=O)=O)c(Cl)c2)S1(=O)=O` [Example 17, (Z)-4-(3-(4-(5-(3-chloro-4-(methylsulfonyl)phenyl)-1,1-dioxido-1,2,5-thiadiazolidin-2-yl)but-2-en-1-yl)-4,4-dimethyl-2,5-dioxoimidazolidin-1-yl)-2-(trifluoromethyl)benzonitrile], in data set [1], the “IC50 on DU145 cells” value is recorded as “no measurable IC50”. In data set [2], this compound yielded a solubility at 1 h of 1.97 µM (≈ 1.3 µg/mL). The IC50 in data set [3] (setting [5]) is < 1.5 µM.
`CC1(C)C(=O)N(c2ccc(C#N)c(C(F)(F)F)c2)C(=O)N1C/C=C\Cn1cnc(-c2ccc(S(C)(=O)=O)c(C(F)(F)F)c2)c1` [Example 18, (Z)-4-(4,4-dimethyl-3-(4-(4-(4-(methylsulfonyl)-3-(trifluoromethyl)phenyl)-1H-imidazol-1-yl)but-2-en-1-yl)-2,5-dioxoimidazolidin-1-yl)-2-(trifluoromethyl)benzonitrile]: the IC50 in data set [3] (setting [4]) is < 1.5 µM.
`CC1(C)C(=O)N(c2ccc(C#N)c(C(F)(F)F)c2)C(=O)N1C/C=C\Cn1cc(-c2ccccc2)nn1` [Example 19, (Z)-4-(4,4-dimethyl-2,5-dioxo-3-(4-(4-phenyl-1H-1,2,3-triazol-1-yl)but-2-en-1-yl)imidazolidin-1-yl)-2-(trifluoromethyl)benzonitrile]: the IC50 in data set [3] (setting [4]) was < 1.5 µM.
Regarding `CC1(C)C(=O)N(c2ccc(C#N)c(C(F)(F)F)c2)C(=O)N1C/C=C\Cn1cc(-c2ccc(C#N)c(C(F)(F)F)c2)nn1` [Example 22, (Z)-4-(3-(4-(4-(4-cyano-3-(trifluoromethyl)phenyl)-1H-1,2,3-triazol-1-yl)but-2-en-1-yl)-4,4-dimethyl-2,5-dioxoimidazolidin-1-yl)-2-(trifluoromethyl)benzonitrile], the IC50 in data set [3] (setting [4]) was < 1.5 µM.

Broadly, the solubility is the dissolved amount per volume that the medium holds.
